According to ChEMBL document CHEMBL1142847, “New orally active spiro 1,2,4-trioxanes with high antimalarial potency” (2005):

Legend:
Assay type in all cases: functional
[1] = Number of Swiss mice (Mus musculus) alive in a batch of 5 infected with multidrug-resistant Plasmodium yoelii, on day 28 after intramuscular administration of 96 mg/kg/day dose
Rattus norvegicus [2] = assay: Number of Swiss mice (Mus musculus) alive in a batch of 5 infected with multidrug-resistant Plasmodium yoelii, on day 28 after peroral administration of 96 mg/kg/day dose; conditions: route oral
Rattus norvegicus [3] = assay: Number of Swiss mice (Mus musculus) alive in a batch of 5 infected with multidrug-resistant Plasmodium yoelii, on day 28 after peroral administration of 48 mg/kg/day dose; conditions: route oral
Rattus norvegicus [4] = assay: Number of Swiss mice (Mus musculus) alive in a batch of 5 infected with multidrug-resistant Plasmodium yoelii, on day 28 after oral administration of 24 mg/kg/day dose

Row | SMILES | Activity [1] | Activity (Rattus norvegicus [2]) | Activity (Rattus norvegicus [3]) | Activity (Rattus norvegicus [4])
1 | C=C(c1ccc(-c2ccccc2)cc1)C1COC2(CCC(O)CC2)OO1 (stereo not drawn) | 2 | 0 | – | –
2 | C=C(c1ccc(-c2ccccc2)cc1)C1COC2(CCC(=CC(=O)OCC)CC2)OO1 (stereo not drawn) | 0 | 5 | 0 | –
3 | C=C(c1ccccc1)C1COC2(CCC(=C(C)C(=O)OCC)CC2)OO1 (stereo not drawn) | 0 | 0 | – | –
4 | C=C(c1ccccc1)C1COC2(CCC(C)(O)CC2)OO1 (stereo not drawn) | 2 | 0 | – | –
5 | C=C(c1ccc(-c2ccccc2)cc1)C1COC2(CCC(O)(CC(=O)OCC)CC2)OO1 (stereo in doubt; form 1) | 0 | 0 | – | –
6 | C=C(c1ccccc1)C1COC2(CCC(OC(=O)CCC(=O)O)CC2)OO1 (stereo not drawn) | 0 | 0 | – | –
7 | C=C(c1ccccc1)C1COC2(CCC(O)(CC(=O)OCC)CC2)OO1 (stereo in doubt; form 1) | 0 | 0 | – | –
8 | C=C(c1ccccc1)C1COC2(CCC(O)(c3ccccc3)CC2)OO1 (stereo not drawn) | 0 | 0 | – | –
9 | C=C(c1ccccc1)C1COC2(CCC(=CC(=O)OCC)CC2)OO1 (stereo not drawn) | 2 | 5 | 5 | 0
10 | C=C(c1ccc(-c2ccccc2)cc1)C1COC2(CCC(OC(=O)CCC(=O)O)CC2)OO1 (stereo not drawn) | 0 | 0 | – | –
11 | C=C(c1ccccc1)C1COC2(CCC(O)CC2)OO1 (stereo not drawn) | 0 | 0 | – | –
12 | C=C(c1ccc(-c2ccccc2)cc1)C1COC2(CCC(=C(C)C(=O)OCC)CC2)OO1 (stereo not drawn) | 0 | 2 | 0 | –
